These results are taken from patent publication US20050026950A1, “Methods of therapeutic treatment using retinoids to achieve consistent bioavailability” (Allergan, Inc., priority 2003, published 2005).

The subject of one data set is RARs. The data set can be described thus: RAR activation. In kind it is cell-based.
A further data set concerns RXRs. Put plainly: RXR activation. In kind it is cell-based.
The conditions of data set [1]: published data (N = 525); cited from earlier work.
For data set [2] the following is noted: cited from earlier work.
The conditions of data set [3]: oral, cited from earlier work.
The conditions of data set [4]: published data (N = 525); cited from earlier work. This is another data set of the same source.
The target in a further data set is T1, RAR-α (Homo sapiens, UniProt P10276).
T1 sequence (P10276 1-462): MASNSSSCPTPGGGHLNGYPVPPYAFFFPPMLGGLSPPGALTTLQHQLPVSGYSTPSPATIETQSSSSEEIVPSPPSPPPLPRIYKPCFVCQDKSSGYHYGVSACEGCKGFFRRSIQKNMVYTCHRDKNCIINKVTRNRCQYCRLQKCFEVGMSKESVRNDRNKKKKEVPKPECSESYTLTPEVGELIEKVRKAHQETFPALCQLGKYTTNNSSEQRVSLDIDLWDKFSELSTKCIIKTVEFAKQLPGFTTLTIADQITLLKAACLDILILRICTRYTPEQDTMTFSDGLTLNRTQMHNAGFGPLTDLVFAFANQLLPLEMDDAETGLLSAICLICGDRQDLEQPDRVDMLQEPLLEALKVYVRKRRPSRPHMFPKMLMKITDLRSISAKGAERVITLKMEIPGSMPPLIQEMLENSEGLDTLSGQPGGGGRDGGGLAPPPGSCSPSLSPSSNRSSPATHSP
Put plainly: RAR-α activity. In kind it is cell-based.

Data set [5] is described as follows: Patient with severe psoriasis taking Ortho-Novum treated with tazarotene. The class given is in vivo, human. The settings on record: female, human, in vivo, tazarotene 6 mg per day, mean ±SD. The source says: The patient presents symptoms of severe psoriasis. The symptoms include lesions approximately 4 to 10 centimeters across appearing as raised patches of wine red skin many of which are covered in silvery white scales. The lesions are mostly dry and rough, and quite often noticeably warm to the touch. The lesions are present on the elbows, knees, scalp, and groin area. The patient experiences intense burning and itching associated with the lesions.
The patient is currently taking Ortho-Novum® for contraception.
Tazarotene at a dose of 6 mg per day is prescribed.

A short description of data set [6]: Food effect (high-fat meal vs 8-10 hour fast) on pharmacokinetics of tazarotenic acid after oral tazarotene in normal healthy subjects. The conditions noted are these: 6.3 mg oral tazarotene, fed vs fasted. In kind it is in vivo, human. The source says: For the purposes of this application, the bioavailability of a drug may be based on the human pharmokinetic parameters of maximum blood concentration (Cmax) and Area under the blood concentration-time curve (AUC).

Read-outs that look alike come from different tables or passages of the source.

Consider `CC1(C)CC[S+]([O-])c2ccc(C#Cc3ccc(C(=O)O)cn3)cc21` (centres unmarked) [AGN 190844], for which the “activation of the RARs” value in the data set with RARs was “does not activate either the RARs or the RXRs”. In addition, the “activation of the RXRs” value in the data set with RXRs is listed as “does not activate either the RARs or the RXRs”.

For the molecule `COc1cc(C)c(/C=C/C(C)=C/C=C/C(C)=C/C(=O)O)c(C)c1C` [acitretin], in [1], the Alopecia is reported as 319 (60.8) number (%) of patients, the Arthralgia is 102 (19.4) number (%) of patients, the Atrophy of skin is 64 (12.2) number (%) of patients and the Back pain is on record as 41 (7.8) number (%) of patients. In data set [1], the Cheilitis was 429 (81.7) number (%) of patients, the “Dry Skin” value is recorded as 174 (33.1) number (%) of patients, the “Dry mouth/Oral dryness” value is given as 76 (14.5) number (%) of patients and the Epistaxis was 61 (11.6) number (%) of patients. Also, in data set [1], the “Erythematous rash/Erythema” value was 57 (10.9) number (%) of patients, the Hyperesthesia was 66 (12.6) number (%) of patients, the “Nail Disorder” value is reported as 170 (32.4) number (%) of patients and the Paresthesia is 56 (10.7) number (%) of patients. Further, in [1], the Paronychia/Nail disorder is 66 (12.6) number (%) of patients, the Pruritus is 157 (29.9) number (%) of patients, the Rhinitis is reported as 153 (29.1) number (%) of patients and the Rigors/Chills was 67 (12.8) number (%) of patients. In data set [1], the “Skin peeling/Desquamation” value was 345 (65.7) number (%) of patients, the “Sticky skin/Skin disorder” value is listed as 129 (24.6) number (%) of patients and the Xerophthalmia/Eye disorder was 112 (21.3) number (%) of patients. Also, in [2] (in vivo), the “effect on contraceptive effect of microdosed progestin “minipill” preparations” value is “interferes with the contraceptive effect”. For the same molecule, the “impact of food on bioavailability” value in data set [3] is “bioavailability is increased in the presence of food”.

Regarding `C=C(c1ccc(C(=O)O)cc1)c1cc2c(cc1C)C(C)(C)CCC2(C)C` [bexarotene], the “effect on plasma concentration of tamoxifen” value in data set [2] (coadministration with tamoxifen) is reported as “reduced plasma concentration of tamoxifen”. The “impact of food on bioavailability” value in data set [3] was “bioavailability is increased in the presence of food”.

As for `CC1=C(/C=C/C(C)=C/C=C/C(C)=C\C(=O)O)C(C)(C)CCC1` [isotretinoin], in data set [2] (coadministered contraceptive tablets), the “effect on blood concentrations of ethinyl estradiol and norethindrone” value is “decreases blood concentrations”. Moreover, the “total dose needed to reach the same peak blood concentration in the fasted state as following a high fat meal” value in data set [3] (fasted vs high fat meal) is “more than doubled”. In data set [3], the “impact of food on bioavailability” value is “bioavailability is increased in the presence of food”. For the same molecule, in data set [4], the Cheilitis is 472 (90.2) number (%) of patients, the Conjunctivitis was 201 (38.4) number (%) of patients, the “Desquamation central face/Desquamation” value is on record as 187 (35.8) number (%) of patients and the Dry Skin is reported as 172 (32.9) number (%) of patients. In data set [4], the Dry nose was 136 (26.0) number (%) of patients, the Epistaxis was 121 (23.1) number (%) of patients, the “Fingertip peeling/Desquamation” value is listed as 63 (12.0) number (%) of patients and the Headache is given as 44 (8.4) number (%) of patients. In data set [4], the Irritation of eyes is 85 (16.3) number (%) of patients, the Pruritus was 127 (24.3) number (%) of patients, the “Red Scaly face/Desquamation” value is given as 54 (10.3) number (%) of patients and the “Skin fragility/Skin disorder” value is 164 (31.4) number (%) of patients.

The Cmax is the peak of the concentration-time curve. Turning to `CC1(C)CCSc2ccc(C#Cc3ccc(C(=O)O)cn3)cc21` [tazarotenic acid], the RAR-α activity result at RAR-α is recorded as “minimal RAR-α activity”. The “receptor specificity and selectivity” value with RARs (RARs, RAR-β and RAR-γ) is “specificity for the RARs and selectivity for RAR-β and RAR-γ”. Further, the AUC(0-t) in data set [5] (read-out: AUC0-24 for tazarotenic acid) is 379 ± 78 ng·h/mL. For the same molecule, in [5] (read-out: Cmax for tazarotenic acid), the maximum concentration (Cmax) came to 111 ± 37 ng/mL. The “90% confidence intervals (CI) of AUC ratios (test/reference)” value in data set [6] is “completely within the 80-125% boundary”. Further, the “Effect of high-fat meal on bioavailability or pharmacokinetics of tazarotenic acid” value in data set [6] (single and multiple dose) is reported as “does not substantially affect”. The “activation of the RXRs” value in the data set with RXRs is listed as “does not activate the RXRs”.
